Among the data in US7935674B2, “Indole derivatives” (Mitsubishi Tanabe Pharma Corporation, priority 2005, dated 2011) are IC50, melting point and Urinary glucose values, retold here.

One series has as its target T1, human SGLT2 (Homo sapiens, UniProt P31639).
T1 construct: expressed in transfected cells; host or cells: CHOK1 (Chinese hamster ovary) cells, kept under Geneticin selection
T1 sequence (P31639 1-672): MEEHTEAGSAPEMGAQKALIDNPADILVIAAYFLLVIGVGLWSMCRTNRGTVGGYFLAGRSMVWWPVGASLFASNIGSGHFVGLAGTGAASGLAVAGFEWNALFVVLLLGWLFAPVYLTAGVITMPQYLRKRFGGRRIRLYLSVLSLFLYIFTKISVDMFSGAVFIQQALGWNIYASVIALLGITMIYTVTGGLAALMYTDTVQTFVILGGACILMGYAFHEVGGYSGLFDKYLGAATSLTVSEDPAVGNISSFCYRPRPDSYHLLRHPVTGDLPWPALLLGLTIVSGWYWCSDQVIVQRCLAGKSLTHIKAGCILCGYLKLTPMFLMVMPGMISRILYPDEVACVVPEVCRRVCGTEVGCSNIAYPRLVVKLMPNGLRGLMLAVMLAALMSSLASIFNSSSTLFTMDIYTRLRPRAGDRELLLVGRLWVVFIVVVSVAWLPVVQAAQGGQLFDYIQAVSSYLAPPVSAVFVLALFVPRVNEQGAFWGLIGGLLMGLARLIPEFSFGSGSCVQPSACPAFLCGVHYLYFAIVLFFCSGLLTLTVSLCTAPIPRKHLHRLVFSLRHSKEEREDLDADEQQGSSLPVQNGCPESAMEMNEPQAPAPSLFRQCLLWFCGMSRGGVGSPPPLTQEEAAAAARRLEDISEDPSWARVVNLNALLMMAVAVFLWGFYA
Briefly: Assay for SGLT2 inhibition (14C-AMG uptake in CHOK1 cells expressing human SGLT2). The series is classed as cell-based. The note with it: CHOK1 cells expressing human SGLT2; 14C-AMG uptake, 0.5 mM, 2 hours at 37° C.; read-out: IC50. On the procedure:
1. Assay for SGLT2 Inhibition
Compounds described in the above examples were used for the SGLT2 inhibition assay.
CHOK1 cells expressing human SGLT2 were seeded in 24-well plates at a density of 400,000 cells/well in F-12 nutrient mixture (Ham's F-12) containing 10% fetal bovine serum, 400 μg/ml Geneticin, 50 units/ml sodium penicillin G (Gibco-BRL) and 50 μg/ml streptomycin sulfate. After 2 days of culture at 37° C. in a humidified atmosphere containing 5% CO2, cells were washed once with the assay buffer (137 mM NaCl, 5 mM KCl, 1 mM CaCl2, 1 mM MgCl2, 50 mM Hepes, and 20 mM Tris, pH 7.4) and incubated with 250 μl of the buffer containing test compounds for 10 min at 37° C. Test compounds were dissolved in DMSO. The final concentration of DMSO was 0.5%. The transport reaction was initiated by addition of 50 μl [^14C]-methyl-α-D-glucopyranoside (^14C-AMG) solution (final concentration, 0.5 mM). After incubation for 2 hours at 37° C., the uptake was stopped by aspiration of the incubation mixture, the cells were washed three times with ice-cold PBS. Then, cells were solubilized with 0.3 N NaOH and aliquots were taken for determination of radioactivity by a liquid scintillation counter. Nonspecific AMG uptake was defined as that which occurred in the presence of 100 μM of phlorizin, a specific inhibitor of sodium-dependent glucose cotransporter. Specific uptake was normalized for the protein concentrations measured by the method of Bradford. The 50% inhibitory concentration (IC50) values were calculated from dose-response curves by least square method.

A further series has as its system Sprague-Dawley (SD) rats. The experiment in a line: Urinary glucose excretion test in rats. The note with it: male SD rats; 30 mg/kg by oral gavage; urine collected for 24 hours; daily amount of glucose excreted in urine per individual. The class given is in vivo, rat. Here is the method:
2. Urinary Glucose Excretion Test in Rats Test Compounds:
Compounds described in the above examples were used for the Urinary glucose excretion test in rats.
6-week-old male Sprague-Dawley (SD) rats were housed in individual metabolic cages with free access to food and water from 2 days prior to the experiment. On the morning of the experiment, rats were administered vehicle (0.2% carboxymethyl cellulose solution containing 0.2% Tween80) or test compounds (30 mg/kg) by oral gavage at a volume of 10 ml/kg. Then, urine of the rat was collected for 24 hours, and the urine volume was measured. Subsequently, the glucose concentration in urine was quantified using the enzymatic assay kit and the daily amount of glucose excreted in urine per individual was calculated.

The compound `Cc1cccc2c1c(Cc1ccc(-c3ccccn3)s1)cn2[C@@H]1O[C@H](CO)[C@@H](O)[C@H](O)[C@H]1O` [Example 52, 4-Methyl-3-(5-(2-pyridyl)thiophen-2-yl-methyl)-1-(β-D-gluco-pyranosyl)indole] had a melting point of 195 to 200 °C. Further, on human SGLT2, the IC50 was determined as 2.8 nM.
In the case of `OC[C@H]1O[C@@H](n2cc(Cc3ccc(OC(F)F)cc3)c3c(F)cccc32)[C@H](O)[C@@H](O)[C@@H]1O` [Example 26, 3-(4-(Difluoromethoxy)phenylmethyl)-4-fluoro-1-(β-D-gluco-pyranosyl)indole], the IC50 on human SGLT2 was found to be 11 nM. In the series on Sprague-Dawley (SD) rats, the Urinary glucose result was “A (A≧2400 mg)”.
Turning to `CCc1ccc(Cc2cn([C@@H]3O[C@H](CO)[C@@H](O)[C@H](O)[C@H]3O)c3cccc(F)c23)s1` [Example 18, 3-(5-Ethylthiophen-2-yl-methyl)-4-fluoro-1-(β-D-gluco-pyranosyl)indole], the IC50 at human SGLT2 is 4.1 nM. Also, the Urinary glucose entry with Sprague-Dawley (SD) rats is given as “B (2400 mg>B≧2000 mg)”.
The corresponding values for `CCOc1ccc(Cc2cn([C@@H]3O[C@H](CO)[C@@H](O)[C@H](O)[C@H]3O)c3ccc(F)c(Cl)c23)cc1` [Example 35, 4-Chloro-3-(4-ethoxyphenylmethyl)-5-fluoro-1-(β-D-gluco-pyranosyl)indole] are 9.1 nM and “A (A≧2400 mg)”.
Turning to `OC[C@H]1O[C@@H](n2cc(Cc3ccc(I)cc3)c3c(Cl)cc(Cl)cc32)[C@H](O)[C@@H](O)[C@@H]1O` [Example 36, 4,6-Dichloro-3-(4-iodophenylmethyl)-1-(β-D-glucopyranosyl)-indole], the IC50 at human SGLT2 is 14 nM. Further, the Urinary glucose result in the series on Sprague-Dawley (SD) rats is “B (2400 mg>B≧2000 mg)”.
